Experimental data: the supplement of paper PMC10307832

Columns and labels:
Experiment in all cases: relative viability (nuclei count vs DMSO), 5 days (fraction); higher = more cells survive
GSK126 + Pictilisib = compound: CC[C@H](C)N1C=C(C2=C(C=C(C=C21)C3=CN=C(C=C3)N4CCNCC4)C(=O)NCC5=C(C=C(NC5=O)C)C)C [GSK126] + CS(=O)(=O)N1CCN(Cc2cc3nc(-c4cccc5[nH]ncc45)nc(N4CCOCC4)c3s2)CC1 [Pictilisib] (partner 1 µM)
In short: (§1)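 Relative viability divides the nuclei count in treated wells by that in vehicle wells. Lung cancer cell lines were seeded in 1536-well plates, dosed by pin tool the next day, and fixed and stained after 5 days in one step with final 0.05% Triton X-100, 1% formaldehyde and 1 ug/ml Hoechst. Dosing was a single drug or a fixed anchor-drug dose plus five library-drug doses (not always all listed) in √10 steps, and values are medians of duplicate plates imaged at 4×.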

Carboplatin + Navitoclax = compound: C1CC(C1)(C(=O)O)C(=O)O.[NH2-].[NH2-].[Pt+2] [Carboplatin] + CC1(C)CCC(c2ccc(Cl)cc2)=C(CN2CCN(c3ccc(C(=O)NS(=O)(=O)c4ccc(N[C@H](CCN5CCOCC5)CSc5ccccc5)c(S(=O)(=O)C(F)(F)F)c4)cc3)CC2)C1 [Navitoclax] (partner 0.5 µM)
In short: as §1

GSK126 + Luminespib = compound: CC[C@H](C)N1C=C(C2=C(C=C(C=C21)C3=CN=C(C=C3)N4CCNCC4)C(=O)NCC5=C(C=C(NC5=O)C)C)C [GSK126] + CCNC(=O)c1noc(-c2cc(C(C)C)c(O)cc2O)c1-c1ccc(CN2CCOCC2)cc1 [Luminespib] (partner 0.01 µM)
In short: as §1

Cell Line	relative viability (GSK126 + Pictilisib; first compound 0.08 µM)	relative viability (GSK126 + Pictilisib; first compound 0.253 µM)	relative viability (GSK126 + Pictilisib; first compound 0.8 µM)	relative viability (GSK126 + Pictilisib; first compound 2.53 µM)	relative viability (GSK126 + Pictilisib; first compound 8 µM)	relative viability (Carboplatin + Navitoclax; first compound 0.08 µM)	relative viability (Carboplatin + Navitoclax; first compound 0.253 µM)	relative viability (Carboplatin + Navitoclax; first compound 0.8 µM)	relative viability (Carboplatin + Navitoclax; first compound 2.53 µM)	relative viability (Carboplatin + Navitoclax; first compound 8 µM)	relative viability (GSK126 + Luminespib; first compound 0.08 µM)	relative viability (GSK126 + Luminespib; first compound 0.253 µM)	relative viability (GSK126 + Luminespib; first compound 0.8 µM)	relative viability (GSK126 + Luminespib; first compound 2.53 µM)	relative viability (GSK126 + Luminespib; first compound 8 µM)
HCC-366	0.132	0.138	0.13	0.0968	0.126	1.08	1.12	1.13	1.02	0.753					
HCC-827	1.19	1.25	1.01	0.953	1.12	0.999	0.98	0.927	0.982	0.918	0.612	0.685	0.676	0.629	0.783
HOP-62	0.894	0.758	0.64	0.86	0.785	1.04	1.08	0.789	0.902	0.748	0.938	0.863	0.943	0.889	0.783
IA-LM	0.359	0.286	0.301	0.443	0.36	0.756	0.553	0.826	0.675	0.532					
LC-2-ad	0.506	0.687	0.647	0.522	0.567	0.37	0.49	0.422	0.436	0.326	1	1.19	0.948	1.04	1.01
LCLC-97TM1	0.22		0.229	0.285	0.18	0.401		0.424	0.391	0.33	0.758	0.796	0.867	0.82	0.81
LCLC-103H	0.712	0.555	0.683	0.626	0.658						1.16	0.931	0.908	1.01	0.994
LK-2	0.772	0.54	0.637	0.658	0.486	0.905	1.03	0.74	0.74	0.995	0.217	0.171	0.171	0.204	0.188
LOU-NH91	0.519	0.501	0.557	0.524	0.545	0.831	0.642	0.667	0.706	0.624	0.303	0.337	0.325	0.364	0.357
LU99A	0.33	0.32	0.284	0.342	0.362	0.842	0.881	0.829	0.774	0.581	0.246	0.328	0.208	0.253	0.199
LXF-289	0.835	0.791	0.732	0.769	0.8	0.933	0.982	0.932	0.903	0.927	0.736	0.652	0.574	0.661	0.747
NCI-H23	0.535	0.568	0.418	0.466	0.512	0.887	0.9	0.789	0.835	0.588	0.224	0.17	0.257	0.226	0.208
NCI-H322M	0.431	0.517	0.507	0.509	0.454	1.26	1.22	1.18	1.13	1.05	0.822	0.845	0.85	0.978	0.834
NCI-H358	0.32	0.347	0.37	0.332	0.442						0.39	0.382	0.366	0.422	0.283
NCI-H522											1.2	1.2	1.13	1.19	1.13
NCI-H650	1.02	0.781	0.884	0.884	0.801						0.92	0.787	0.744	0.834	0.876
NCI-H661	0.43	0.433	0.401	0.565	0.345						0.908	0.884	0.905	0.873	0.944
NCI-H1299	0.877	0.693	0.74	1.02	0.576	1.09	1.02	1.02	1.01	0.964					
NCI-H1563	0.616	0.715	0.695	0.648	0.551						0.546	0.491	0.535	0.514	0.505
NCI-H1623											0.617	0.425	0.502	0.512	0.42
NCI-H1703	0.247	0.263	0.235	0.262	0.231	1.31	1.2	1.11	1.07	1.49					
NCI-H2342											0.731	0.875	0.799	0.857	0.878
SW 900											0.206	0.188	0.165	0.173	0.213
